According to ChEMBL document CHEMBL5260810, “Inhibition of bromodomain-containing protein 9 for the prevention of epigenetically-defined drug resistance” (Bioorg Med Chem Lett, 2017):

Tests used:
Assay type in all cases: functional, cell-based
DOHH-2 = experiment: Cytotoxicity against human DOHH-2 cells measured after 8 days; settings: DOHH-2, 192 h
[1] = Cytotoxicity against human BICR 10 cells measured after 8 days; settings: BICR 10, 192 h
[2] = Cytotoxicity against human Karpas-620 cells measured after 8 days; settings: Karpas-620, 192 h
[3] = Cytotoxicity against human PaTu 8902 cells measured after 8 days; settings: PaTu 8902, 192 h
Ca-Ski = experiment: Cytotoxicity against human Ca-Ski cells measured after 8 days; settings: 192 h
SW982 = experiment: Cytotoxicity against human SW982 cells measured after 8 days; settings: SW982, 192 h
[4] = Cytotoxicity against human SK23 cells measured after 8 days; settings: SK-MEL-23, 192 h
SNU-387 = experiment: Cytotoxicity against human SNU-387 cells measured after 8 days; settings: SNU-387, 192 h
[5] = Cytotoxicity against human SUIT-2 cells measured after 8 days; settings: SUIT-2, 192 h
[6] = Cytotoxicity against human OVCA 420 cells measured after 8 days; settings: OVCA 420, 192 h
[7] = Cytotoxicity against human SC1 cells measured after 8 days; settings: SC-1, 192 h
[8] = Cytotoxicity against human NCE-G 122 cells measured after 8 days; settings: NCE-G 122, 192 h
[9] = Cytotoxicity against human NCE-G 142 cells measured after 8 days; settings: NCE-G 142, 192 h
[10] = Cytotoxicity against human KNS-81 cells measured after 8 days; settings: KNS-81, 192 h
[11] = Cytotoxicity against human UCSD-242L cells measured after 8 days; settings: 192 h
[12] = Cytotoxicity against human ONCO-DG-1 cells measured after 8 days; settings: ONCO-DG-1, 192 h
SK-MEL-24 = experiment: Cytotoxicity against human SK-MEL-24 cells measured after 8 days; settings: SK-MEL-24, 192 h
SF-268 = experiment: Cytotoxicity against human SF-268 cells measured after 8 days; settings: SF-268, 192 h
RPMI-2650 = experiment: Cytotoxicity against human RPMI-2650 cells measured after 8 days; settings: RPMI-2650, 192 h
SISO = experiment: Cytotoxicity against human SISO cells measured after 8 days; settings: 192 h
A-431 = experiment: Cytotoxicity against human A-431 cells measured after 8 days; settings: A-431, 192 h
[13] = Cytotoxicity against human FA9JTOTERT cells measured after 8 days; settings: 192 h
[14] = Cytotoxicity against human KHM-5M cells measured after 8 days; settings: 192 h
[15] = Cytotoxicity against human HCC1159 cells measured after 8 days; settings: HCC1159, 192 h
BaF3 = experiment: Cytotoxicity against mouse BaF3 cells measured after 8 days; settings: BaF3, 192 h
[16] = Cytotoxicity against human PK-8 cells measured after 8 days; settings: PK-8, 192 h
[17] = Cytotoxicity against human TC71 cells measured after 8 days; settings: TC-71, 192 h
KLE = experiment: Cytotoxicity against human KLE cells measured after 8 days; settings: 192 h
KYSE-520 cell line = experiment: Cytotoxicity against human KYSE520 cells measured after 8 days; settings: KYSE-520, 192 h
SIMA = experiment: Cytotoxicity against human SIMA cells measured after 8 days; settings: 192 h
NUGC-3 = experiment: Cytotoxicity against human NUGC-3 cells measured after 8 days; settings: NUGC-3, 192 h
HT-1080 = experiment: Cytotoxicity against human HT-1080 cells measured after 8 days; settings: HT-1080, 192 h
SK-N-FI = experiment: Cytotoxicity against human SK-N-FI cells measured after 8 days; settings: 192 h
NCI-H1930 = experiment: Cytotoxicity against human NCI-H1930 cells measured after 8 days; settings: NCI-H1930, 192 h
SU.86.86 = experiment: Cytotoxicity against human SU-86-86 cells measured after 8 days; settings: SU.86.86, 192 h
KYSE-410 = experiment: Cytotoxicity against human KYSE-410 cells measured after 8 days; settings: KYSE-410, 192 h
NCI-H187 = experiment: Cytotoxicity against human NCI-H187 cells measured after 8 days; settings: NCI-H187, 192 h
[18] = Cytotoxicity against human KPP14388 cells measured after 8 days; settings: KPP14388, 192 h
HN = experiment: Cytotoxicity against human HN cells measured after 8 days; settings: 192 h
[19] = Cytotoxicity against human NCE-G 124 cells measured after 8 days; settings: NCE-G 124, 192 h
[20] = Cytotoxicity against human HCC15 cells measured after 8 days; settings: HCC15, 192 h
[21] = Cytotoxicity against human Panc 04.03 cells measured after 8 days; settings: Panc 04.03, 192 h
[22] = Cytotoxicity against human PK-59 cells measured after 8 days; settings: PK-59, 192 h
SW626 = experiment: Cytotoxicity against human SW626 cells measured after 8 days; settings: SW626, 192 h
[23] = Cytotoxicity against human KATO III stomach cancer cell line measured after 8 days; settings: 192 h
HepG2 = experiment: Cytotoxicity against human HepG2 cells measured after 8 days; settings: HepG2, 192 h
[24] = Cytotoxicity against human HEC-6 cells measured after 8 days; settings: HEC-6, 192 h
HMV-2 cell line = experiment: Cytotoxicity against human HMV-2 cell line measured after 8 days; settings: HMV-2, 192 h
PANC-1 = experiment: Cytotoxicity against human PANC-1 cells measured after 8 days; settings: PANC-1, 192 h
SNU-16 = experiment: Cytotoxicity against human SNU-16 cells measured after 8 days; settings: SNU-16, 192 h
SNU-398 = experiment: Cytotoxicity against human SNU-398 cells measured after 8 days; settings: SNU-398, 192 h
BT-20 = experiment: Cytotoxicity against human BT-20 cells measured after 8 days; settings: BT-20, 192 h
NOMO-1 = experiment: Cytotoxicity against human NOMO-1 cells measured after 8 days; settings: NOMO-1, 192 h
OE33 = experiment: Cytotoxicity against human OE33 cells measured after 8 days; settings: OE33, 192 h
SK-N-DZ = experiment: Cytotoxicity against human SK-N-DZ cells measured after 8 days; settings: 192 h
[25] = Cytotoxicity against human HEC-59 cells measured after 8 days; settings: HEC-59, 192 h
[26] = Cytotoxicity against human COV504 cells measured after 8 days; settings: COV504, 192 h
[27] = Cytotoxicity against human Hs 852.T cells measured after 8 days; settings: 192 h
[28] = Cytotoxicity against human KMS-34 cells measured after 8 days; settings: KMS-34, 192 h
[29] = Cytotoxicity against human HCC1010 cells measured after 8 days; settings: HCC1010, 192 h
DOV13 = experiment: Cytotoxicity against human DOV13 cells measured after 8 days; settings: DOV13, 192 h
GI-1 = experiment: Cytotoxicity against human GI-1 cells measured after 8 days; settings: GI-1, 192 h

SMILES: C/C=C/Cn1cc(-c2ccc(C(=O)N3CCOCC3)cc2)c2cc[nH]c2c1=O
- IC50 (DOHH-2): 16.1 µM
- IC50 [1]: 20 µM
- IC50 [2]: 20 µM
- IC50 [3]: 20 µM
- IC50 (Ca-Ski): 20 µM
- IC50 (SW982): 20 µM
- IC50 [4]: 20 µM
- IC50 (SNU-387): 20 µM
- IC50 [5]: 20 µM
- IC50 [6]: 20 µM
- IC50 [7]: 20 µM
- IC50 [8]: 20 µM
- IC50 [9]: 20 µM
- IC50 [10]: 20 µM
- IC50 [11]: 20 µM
- IC50 [12]: 20 µM
- IC50 (SK-MEL-24): 20 µM
- IC50 (SF-268): 20 µM
- IC50 (RPMI-2650): 20 µM
- IC50 (SISO): 20 µM
- IC50 (A-431): 20 µM
- IC50 [13]: 20 µM
- IC50 [14]: 20 µM
- IC50 [15]: 20 µM
- IC50 (BaF3): 20 µM
- IC50 [16]: 20 µM
- IC50 [17]: 11.1 µM
- IC50 (KLE): 20 µM
- IC50 (KYSE-520 cell line): 20 µM
- IC50 (SIMA): 20 µM
- IC50 (NUGC-3): 20 µM
- IC50 (HT-1080): 20 µM
- IC50 (SK-N-FI): 20 µM
- IC50 (NCI-H1930): 20 µM
- IC50 (SU.86.86): 20 µM
- IC50 (KYSE-410): 20 µM
- IC50 (NCI-H187): 20 µM
- IC50 [18]: 20 µM
- IC50 (HN): 20 µM
- IC50 [19]: 20 µM
- IC50 [20]: 20 µM
- IC50 [21]: 20 µM
- IC50 [22]: 20 µM
- IC50 (SW626): 20 µM
- IC50 [23]: 20 µM
- IC50 (HepG2): 20 µM
- IC50 [24]: 20 µM
- IC50 (HMV-2 cell line): 20 µM
- IC50 (PANC-1): 20 µM
- IC50 (SNU-16): 20 µM
- IC50 (SNU-398): 20 µM
- IC50 (BT-20): 20 µM
- IC50 (NOMO-1): 20 µM
- IC50 (OE33): 20 µM
- IC50 (SK-N-DZ): 20 µM
- IC50 [25]: 20 µM
- IC50 [26]: 20 µM
- IC50 [27]: 20 µM
- IC50 [28]: 15.3 µM
- IC50 [29]: 20 µM
- IC50 (DOV13): 20 µM
- IC50 (GI-1): 20 µM

SMILES: C/C=C/Cn1cc(-c2ccc(C(C)(C)O)cc2OC)c2cc[nH]c2c1=O
- IC50 (DOHH-2): 10.7 µM
- IC50 [1]: 20 µM
- IC50 [2]: 20 µM
- IC50 [3]: 20 µM
- IC50 (Ca-Ski): 20 µM
- IC50 (SW982): 20 µM
- IC50 [4]: 6.07 µM
- IC50 (SNU-387): 20 µM
- IC50 [5]: 20 µM
- IC50 [6]: 20 µM
- IC50 [7]: 17.8 µM
- IC50 [8]: 20 µM
- IC50 [9]: 20 µM
- IC50 [10]: 20 µM
- IC50 [11]: 20 µM
- IC50 [12]: 20 µM
- IC50 (SK-MEL-24): 20 µM
- IC50 (SF-268): 20 µM
- IC50 (RPMI-2650): 20 µM
- IC50 (SISO): 20 µM
- IC50 (A-431): 20 µM
- IC50 [13]: 20 µM
- IC50 [14]: 20 µM
- IC50 [15]: 20 µM
- IC50 (BaF3): 20 µM
- IC50 [16]: 20 µM
- IC50 [17]: 13.9 µM
- IC50 (KLE): 20 µM
- IC50 (KYSE-520 cell line): 14.4 µM
- IC50 (SIMA): 20 µM
- IC50 (NUGC-3): 20 µM
- IC50 (HT-1080): 20 µM
- IC50 (SK-N-FI): 20 µM
- IC50 (NCI-H1930): 20 µM
- IC50 (SU.86.86): 20 µM
- IC50 (KYSE-410): 20 µM
- IC50 (NCI-H187): 20 µM
- IC50 [18]: 20 µM
- IC50 (HN): 20 µM
- IC50 [19]: 20 µM
- IC50 [20]: 20 µM
- IC50 [21]: 20 µM
- IC50 [22]: 20 µM
- IC50 (SW626): 20 µM
- IC50 [23]: 20 µM
- IC50 (HepG2): 20 µM
- IC50 [24]: 20 µM
- IC50 (HMV-2 cell line): 20 µM
- IC50 (PANC-1): 20 µM
- IC50 (SNU-16): 20 µM
- IC50 (SNU-398): 20 µM
- IC50 (BT-20): 20 µM
- IC50 (NOMO-1): 20 µM
- IC50 (OE33): 20 µM
- IC50 (SK-N-DZ): 18.6 µM
- IC50 [25]: 20 µM
- IC50 [26]: 20 µM
- IC50 [27]: 20 µM
- IC50 [28]: 20 µM
- IC50 [29]: 20 µM
- IC50 (DOV13): 20 µM
- IC50 (GI-1): 20 µM
